Measured values as given in patent publication US20100063085A1, “METHOD OF TREATING LEARNING IMPAIRMENT IN DOWN'S SYNDROME SUBJECTS” (University Court of The University of Dundee, priority 2008, published 2010).
Read-outs that look alike come from different tables or passages of the source.

Key:
[1] = system: PKBΔph; test: PKBΔph 33P kinase assay; type: biochemical
Description: (§1) All assays (25.5 μl) were carried out at room temperature (21° C.) and were linear with respect to time and enzyme concentrations under the conditions used. Assays were performed for 30 minutes except assays for LCK and PKB which were performed for 15 minutes using Multidrop Micro reagent dispensers (Thermo Electron Corporation, Waltham, Mass. 02454, USA) in a 96-well format. The concentration of […] [γ-^33P] ATP (800 cpm/pmol) in the assays was one of three concentrations (5, 20 or 50 μM) in order to be at or below Km for ATP for the enzyme. Assays were initiated with MgATP and stopped by addition of 5 μl of 0.5M orthophosphoric acid. Assays were then harvested onto P81 filterplates using a unifilter harvester (PerkinElmer, Boston, Mass. 02118, USA), with a wash buffer of 50 mM orthophosphoric acid. Filterplates were then air dried overnight. 10 μl of Microscint O was added per well prior to counting for radioactivity.

[2] = molecular target: T1, MST2 (Homo sapiens, UniProt Q13188); test: biochemical; conditions: read-out: MST2 activity as percentage of control without inhibitor
T1 sequence (Q13188 1-491): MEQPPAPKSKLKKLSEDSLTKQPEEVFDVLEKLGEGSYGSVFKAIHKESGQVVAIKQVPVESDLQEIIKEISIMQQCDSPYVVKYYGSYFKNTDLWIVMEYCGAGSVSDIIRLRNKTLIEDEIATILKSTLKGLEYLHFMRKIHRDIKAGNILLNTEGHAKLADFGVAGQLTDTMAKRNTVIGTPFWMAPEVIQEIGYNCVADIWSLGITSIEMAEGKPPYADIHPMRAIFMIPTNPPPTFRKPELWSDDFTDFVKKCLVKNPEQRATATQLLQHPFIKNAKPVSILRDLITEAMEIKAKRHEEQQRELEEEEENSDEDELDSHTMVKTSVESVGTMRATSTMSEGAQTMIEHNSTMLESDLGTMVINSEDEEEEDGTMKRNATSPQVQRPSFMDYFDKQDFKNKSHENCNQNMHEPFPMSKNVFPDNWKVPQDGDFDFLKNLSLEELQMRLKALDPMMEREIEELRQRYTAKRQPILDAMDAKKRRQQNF
Description: as §1
The following kinases were assayed against the substrates indicated. Aurora B was assayed against the substrate peptide […] (300 μM), ERK8 and MST-2 were both assayed against MBP (0.33 mg/ml). IKKβ was assayed against the substrate peptide […] (300 μM), JNK3 was assayed against 3 μM ATF2[19-96]. MAPKAP-K3 and PKD1 were both assayed against […] (30 μM), MARK3 was assayed against CHKtide ([…]) substrate peptide (300 μM). MNK1 and MNK2 were both assayed against eIF4E protein (0.5 mg/ml). NEK7 was assayed against […] (300 μM), PIM2 was assayed against […] (300 μM), ΔPH PKBβ-S474D was assayed against Crosstide (30 μM), PLK1 was assayed against […] (300 μM). PRK2 was assayed against Long S6 peptide, […] (30 μM), RSK2 was assayed against […] (30 μM), SRC was assayed against cdc2 peptide, […], (300 μM) and SRPK1 was assayed against peptide […] (300 μM). All enzymes were diluted in 50 mM Tris/HCl pH 7.5, 0.1 mM EGTA, 1 mg/ml BSA, 0.1% β-mercaptoethanol buffer and assayed in an incubation containing 50 mM Tris/HCl pH7.5, 0.1 mM EGTA, 0.1% β-mercaptoethanol, CAMK-1 (5-20 mU) diluted in 50 mM Tris/HCl pH 7.5, 0.1 mM EGTA, 1 mg/ml BSA, 0.1% β-mercaptoethanol is assayed against substrate peptide […] in an incubation containing 50 mM Tris/HCl pH 7.5, 0.1 mM EGTA, 0.5 mM CaCl2, 0.3 μM calmodulin, 0.1% β-mereaptoethanol, 300 μM substrate peptide, 10 mM magnesium acetate and 0.05 mM [^33P-γ-ATP] (500-1000 cpm/pmole). EF2K (5-20 mU) diluted in 50 mM Hepes pH 6.6, 0.1% β-mercaptoethanol, 1 mg/ml BSA is assayed against a substrate peptide […] in an incubation containing 50 mM Hepes pH 6.6, 0.2 mM CaCl2, 0.3 μM Calmodulin, 0.05% b-mercaptoethanol, 300 μM substrate peptide, 10 mM magnesium acetate and 0.05 mM [^33P-γ-ATP] (500-1000 cpm/pmole).

COc1ccc2c3c([nH]c2c1)C(C)=NCC3 [Harmaline]
PKBΔph activity as percentage of control without inhibitor ([1]; inhibitor 1 μM): 80%
PKBΔph activity as percentage of control without inhibitor ([1]; inhibitor 10 μM): 98%
remaining activity at 1 µM ([2]; inhibitor 1 μM): 98%
remaining activity at 10 µM ([2]; inhibitor 10 μM): 105%

COc1ccc2c(c1)[nH]c1c(C)nccc12 [Harmine]
PKBΔph activity as percentage of control without inhibitor ([1]; inhibitor 1 μM): 107%
PKBΔph activity as percentage of control without inhibitor ([1]; inhibitor 10 μM): 107%
remaining activity at 1 µM [2]: 91%
remaining activity at 10 µM [2]: 81%

CC1=NCCc2c1[nH]c1cc(O)ccc21 [Harmalol]
PKBΔph activity as percentage of control without inhibitor ([1]; inhibitor 1 μM): 92%
PKBΔph activity as percentage of control without inhibitor ([1]; inhibitor 10 μM): 58%
remaining activity at 1 µM ([2]; inhibitor 1 μM): 85%
remaining activity at 10 µM ([2]; inhibitor 10 μM): 74%
